Holding throughout (type): biochemical
For data set [1], the target named is T1, Micrococcus uricase variant AG-2C12-PEG (S142C/E216C in AG-00-1, SEQ ID NO: 3; PEGylated) (Arthrobacter globiformis, UniProt D0VWQ1, E216C/S142C).
T1 construct: purified
T1 sequence (D0VWQ1 1-297 S142C/E216C): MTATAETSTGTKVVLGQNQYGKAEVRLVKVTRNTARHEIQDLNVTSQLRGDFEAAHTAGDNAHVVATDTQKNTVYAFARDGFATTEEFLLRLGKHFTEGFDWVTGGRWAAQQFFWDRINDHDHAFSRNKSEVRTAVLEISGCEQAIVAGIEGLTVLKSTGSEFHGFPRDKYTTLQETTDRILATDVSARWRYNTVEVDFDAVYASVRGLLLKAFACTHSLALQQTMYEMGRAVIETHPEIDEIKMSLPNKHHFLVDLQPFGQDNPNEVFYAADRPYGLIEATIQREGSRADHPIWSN
Kind of data set: Enzyme activity kinetic study of PEGylated uricase with uric acid. Particulars: Tris-HCl pH 8.5, 37° C.; turnover number, substrate converted within one second. Here is the method: (§1) By using a method similar to that in Example 1 to introduce Cys mutations, the following molecules were prepared: AG-2C12, AG-2C13, AG-2C16, AG-2C17, AG-1C13-1, AG-2C01, AG-2C05-1, AG-2C01-1 and AG-2C12-1.
(§2) To 2 mg of a uricase (100 mM PBS buffer, pH=7.0, 150 mM NaCl) were sequentially added TCEP.HCl (0.5 mg, tris(2-carboxyethyl)phosphine hydrochloride) and M-MAL-PEG-10K (27.5 mg, maleimide polyethylene glycol, molecular weight of 10,000 Da). The mixture was allowed to react at room temperature for 2 h. The reaction mixture was purified by ion-exchange chromatography to obtain a PEGylated uricase.
(§3) The Cys mutation sites selected above were paired for PEGylation modification and uricase activity evaluation.
(§4) A. Enzyme Activity Kinetic Study of PEGylated […]
(§5) Tris-HCl buffer system (pH 8.5) was used. The stock solution for uricase working solutions was 2 mM uric acid, which was stored at 4° C. Process of enzyme activity assay:
(§6) The temperature was set at 37° C.
(§7) Substrate (uric acid) concentration gradients: 600 μmol, 500 μmol, 400 μmol, 200 μmol, 100 μmol, 50 μmol, 25 μmol, and 12.5 μmol.
(§8) 50 μL of the above uric acid solution and 30 μL of the above Tris-HCl buffer were first added to a 96-well plate and incubated at 37° C. for 20 min. Then 20 μL of an appropriately diluted uricase solution (0.004 mg/mL) was rapidly added to the 96-well plate. Procedure setting: reaction for 10 min, one data reading every 20 s, and initiation of reaction.

The target of data set [2] is T2, Micrococcus uricase variant AG-2C13-PEG (A35C/S288C in AG-00-1, SEQ ID NO: 3; PEGylated) (Arthrobacter globiformis, UniProt D0VWQ1, A35C/S288C).
T2 construct: purified
T2 sequence (D0VWQ1 1-297 A35C/S288C): T1 sequence (D0VWQ1 1-297 S142C/E216C) with A35C, C142S, C216E, S288C
The description is as above. Particulars: Tris-HCl pH 8.5, 37° C.; turnover number, substrate converted within one second. Here is the method: as §1, §2, §3, §4, §5, §6, §7, §8

In data set [3] the target is T3, Micrococcus uricase variant AG-2C01-2-PEG (A35C/T194C in AG-00-1, SEQ ID NO: 3; PEGylated) (Arthrobacter globiformis, UniProt D0VWQ1, A35C/T194C).
T3 construct: purified
T3 sequence (D0VWQ1 1-297 A35C/T194C): T1 sequence (D0VWQ1 1-297 S142C/E216C) with A35C, C142S, T194C, C216E
The description is as above. The following applies: Tris-HCl pH 8.5, 37° C.; turnover number, substrate converted within one second. The method, then: as §1, §2, §3, §4, §5, §6, §7, §8

In data set [4] the target is T4, reference uricase MEDI4945 (SEQ ID NO: 2) (Arthrobacter globiformis, UniProt D0VWQ1, N33C/R49S/T11C).
T4 sequence (D0VWQ1 with tags, fused parts or gaps T11C/N33C/R49S): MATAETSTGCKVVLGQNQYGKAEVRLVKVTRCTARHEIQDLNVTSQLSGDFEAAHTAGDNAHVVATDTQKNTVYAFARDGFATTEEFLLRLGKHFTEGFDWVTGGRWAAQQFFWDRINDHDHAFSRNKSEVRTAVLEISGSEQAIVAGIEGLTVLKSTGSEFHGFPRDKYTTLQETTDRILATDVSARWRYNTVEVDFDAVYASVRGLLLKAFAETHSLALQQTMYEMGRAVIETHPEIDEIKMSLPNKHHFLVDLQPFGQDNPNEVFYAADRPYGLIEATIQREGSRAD
In words: Enzyme activity kinetic study of reference uricase with uric acid. The following applies: Tris-HCl pH 8.5, 37° C.; turnover number, substrate converted within one second. The method, then:
(§9) A reference uricase MEDI4945 was synthesized using a method similar to that described above, having an amino acid sequence of SEQ ID NO: 2. MEDI4945 is the uricase disclosed in International Application No. PCT/US2016/032415, having an amino acid sequence shown below:
as §4, §5, §6, §7, §8

Substrate in data set [5]: O=c1[nH]c(=O)c2[nH]c(=O)[nH]c2[nH]1
The description is as above. The following applies: other: Tris-HCl pH 8.5, 37° C., uric acid 12.5-600 μmol. Here is the method:
as §9, §4, §5, §6, §7, §8

Numbering of substitutions follows the chain as printed. Numbers in names are those of the source.

Turning to `O=c1[nH]c(=O)c2[nH]c(=O)[nH]c2[nH]1` [uric acid], the Kcat in data set [1] amounted to 5.3; in data set [2], 3.6; in data set [3], 5.4; in data set [4], 2.6.

B1: reference uricase MEDI4945 (SEQ ID NO: 2) (Arthrobacter globiformis; N33C/R49S/T11C) (protein)
chain: T4 sequence (D0VWQ1 with tags, fused parts or gaps T11C/N33C/R49S)
As to B1, in data set [5], the Km is 101 µM.

The values are drawn from patent US20230073183A1, “IMPROVED URICASE AND METHOD FOR TREATING HYPERURICEMIA USING SAME” (SHANGHAI JUNSHI BIOSCIENCES CO., LTD., priority 2019, published 2023).
